Laboratory results as given in patent US8193326B2, “Nucleic acids encoding novel TERT polypeptides” (GemVax AS, priority 2000, dated 2012).

System: T cells from human peripheral blood mononuclear cells (PBMC)
Assay: Induction and proliferation of human T cell response to peptide (3H-thymidine proliferation assay)
Format: cell-based
Details: PBMC from four healthy donors primed with peptide-pulsed dendritic cells, re-stimulated with peptide-pulsed autologous PBMC, mean cpm of triplicates
Text: In this experiment, peripheral blood mononuclear cells (PBMC) from four healthy humans (donors “14328”, “14313”, “23244” and “23255”) and were isolated and primed for seven days with dendritic cells pulsed with the SEQ ID NO: 11 peptide derived from the hTERT σ-insert polypeptide, followed by two cycles consisting of seven days re-stimulation with peptide-pulsed autologous PBMC. The dendritic cells were derived from monocytes from peripheral blood. T cells from the resulting bulk: culture were tested in triplicate with or without peptide-pulsed antigen presenting cells (APC) before harvesting after 3 days. To measure the proliferative capacity of the cultures, ^3H-thymidine (3.7×10^4 Bq/well) was added to the culture overnight before harvesting. Cultures with non-pulsed APC or without APC served as controls. Further details of the protocol used are set out below.
T cell clones were obtained from the resulting bulk cultures from non-vaccinated donors 14313 and 23255. […]
PBMCs were separated out from 50 ml of blood (from buffy coat). The cells were counted and re-suspended in complete RPMI-1640/15% pool serum. […]
Bulk cultures were harvested and stimulated with irradiated PBMCs and peptide. If there was high cell death, cultures were lymphoprep separated, otherwise they were counted and resuspended in RPMI/15% pool serum. […]

SEQ ID NO: 11: peptide derived from the hTERT σ-insert polypeptide (RVAVLWFNFLFKQKPSVSPRG; listed as Homo sapiens)
proliferative T cell response / peptide-specific T cells (bulk cultures and T cell clones, FIGS. 7-9): T cells can be expanded in vitro following stimulation with the relevant peptide
